Assay results reported in PMC12024397, “Structure–Activity Study of the Antimicrobial Lipopeptide Humimycin A and Screening Against Multidrug-Resistant Staphylococcus aureus” (Antibiotics, 2025).
In brackets after ≈: the same amount, converted by molar mass. Non-standard residues stand in square brackets, D forms with d. Residues, ends and D or L forms follow the SMILES beside them. *: point of attachment. Tetradecanoyl(3R-OH) = CCCCCCCCCCC[C@@H](O)CC(=O)*; Tetradecanoyl(3S-OH) = CCCCCCCCCCC[C@H](O)CC(=O)*

Columns and labels:
[1] = test system: Salmonella enterica ATCC 14028; assay: MIC, broth microdilution; assay type: cell-based; settings: 37 °C, 18–20 h, triplicate
Description: (§1) Analogs were serially diluted two-fold from stock solutions.

[2] = test system: Escherichia coli ATCC 25922; assay: MIC, broth microdilution; assay type: cell-based; settings: 37 °C, 18–20 h, triplicate
Description: as §1

[3] = test system: Pseudomonas aeruginosa ATCC 27853; assay: MIC, broth microdilution; assay type: cell-based; settings: 37 °C, 18–20 h, triplicate
Description: as §1

[4] = test system: Bacillus subtilis ATCC 23857; assay: MIC, broth microdilution; assay type: cell-based; settings: 37 °C, 18–20 h, triplicate
Description: as §1

S. aureus strain 4-170 = settings: broth microdilution, triplicate; isolate 4-170, no resistance profile listed
Description: (§2) The bacterial strains used in this study included S. aureus ATCC 29213 and ATCC 43300, B. subtilis ATCC […], E. coli ATCC 25922, P. aeruginosa ATCC 27853, and S. enterica serovar Typhimurium ATCC 14028, all of which were purchased from Cedarlane, Canada. Additionally, a collection of 19 S. aureus strains, ranging from antibiotic-sensitive to multidrug-resistant, and originating from clinical intramammary infections (IMI), was selected from the Mastitis Pathogen Culture Collection of the Canadian Bovine Mastitis Research Network (Université de Montréal, St-Hyacinthe, QC, Canada). These strains, previously used in other studies, were also included in this work. S. aureus ATCC 29213 and B. subtilis ATCC 6633 were cultured in Tryptic Soy Broth (TSB) (Difco^TM, Becton, Dickenson & Company, Spark, MD, USA). E. coli ATCC 25922 and P. aeruginosa ATCC 27853 were grown in Luria–Bertani (LB) broth (Fisher Scientific, Fair Lawn, NJ, USA). S. enterica serovar Typhimurium ATCC 14028 was propagated in Nutrient Broth (NB) (Oxoid, Basingstoke, UK). All bacterial cultures were incubated overnight at 37 °C before use and during the performance of assays.
(§3) MIC assays were performed using the broth microdilution method in 96-well plates. Analogs were serially diluted two-fold from stock solutions. The plates were incubated overnight at 37 °C and bacterial growth was monitored by measuring the absorbance at 595 nm over 18–20 h and the assay was performed in triplicate.

S. aureus strain 4-133 = settings: broth microdilution, triplicate; isolate 4-133, resistance PEN-CEF-CTX-FOX-CIP-CHL-KAN-GEN
Description: as §2, §3

S. aureus strain 4-134 = settings: broth microdilution, triplicate; isolate 4-134, resistance PEN-VAN-CEF-CTX-FOX-ERY-CC-TET-KAN-GEN-STR
Description: as §2, §3

S. aureus strain A-165 = settings: broth microdilution, triplicate; isolate A-165, resistance PEN-CEF-CTX-FOX-CIP-CC-KAN-GEN-STR-P/N
Description: as §2, §3

S. aureus strain 4-162 = settings: broth microdilution, triplicate; isolate 4-162, no resistance profile listed
Description: as §2, §3

S. aureus strain 4-159 = settings: broth microdilution, triplicate; isolate 4-159, no resistance profile listed
Description: as §2, §3

S. aureus strain 4-138 = settings: broth microdilution, triplicate; isolate 4-138, no resistance profile listed
Description: as §2, §3

S. aureus strain 4-131 = settings: broth microdilution, triplicate; isolate 4-131, no resistance profile listed
Description: as §2, §3

S. aureus strain 4-156 = settings: broth microdilution, triplicate; isolate 4-156, no resistance profile listed
Description: as §2, §3

S. aureus strain 4-145 = settings: broth microdilution, triplicate; isolate 4-145, no resistance profile listed
Description: as §2, §3

S. aureus strain 4-144 = settings: broth microdilution, triplicate; isolate 4-144, resistance PEN-AMC-CEF-CTX-FOX-CIP-CHL-ERY-TET
Description: as §2, §3

S. aureus strain 4-139 = settings: broth microdilution, triplicate; isolate 4-139, resistance PEN-ERY-CC-TET-KAN
Description: as §2, §3

S. aureus strain 4-173 = settings: broth microdilution, triplicate; isolate 4-173, no resistance profile listed
Description: as §2, §3

S. aureus strain 4-157 = settings: broth microdilution, triplicate; isolate 4-157, no resistance profile listed
Description: as §2, §3

S. aureus strain 4-140 = settings: broth microdilution, triplicate; isolate 4-140, resistance TET
Description: as §2, §3

With `CCCCCCCCCCC[C@H](O)CC(=O)N[C@@H](Cc1c[nH]c2ccccc12)C(=O)N[C@@H](CO)C(=O)N[C@H](Cc1c[nH]c2ccccc12)C(=O)N[C@@H](Cc1ccccc1)C(=O)N[C@@H](C(=O)N[C@H](C(=O)N[C@H](C(=O)O)C(C)C)C(C)C)[C@H](C)O` [12S] ({Tetradecanoyl(3S-OH)}-WS[dW]F[dT]VV-OH) the MIC [1] was “- (No antimicrobial activity was detected up to 256 µg/mL)”, the MIC [2] was “- (No antimicrobial activity was detected up to 256 µg/mL)” and the MIC [3] was “- (No antimicrobial activity was detected up to 256 µg/mL)”. For the same molecule, the MIC [4] was “- (No antimicrobial activity was detected up to 256 µg/mL)”, the MIC (S. aureus strain 4-170) was 8 µg/mL (≈ 6.95 µM) and the MIC (S. aureus strain 4-133) was 256 µg/mL (≈ 223 µM). The MIC (S. aureus strain 4-134) was greater than 256 µg/mL, the MIC (S. aureus strain A-165) was 256 µg/mL (≈ 223 µM) and the MIC (S. aureus strain 4-162) was greater than 256 µg/mL. The MIC (S. aureus strain 4-159) was 16 µg/mL (≈ 13.9 µM), the MIC (S. aureus strain 4-138) was 4 µg/mL (≈ 3.48 µM) and the MIC (S. aureus strain 4-131) was greater than 256 µg/mL. It also gave an MIC (S. aureus strain 4-156) of 8 µg/mL (≈ 6.95 µM), an MIC (S. aureus strain 4-145) of 32 µg/mL (≈ 27.8 µM) and an MIC (S. aureus strain 4-144) of 16 µg/mL (≈ 13.9 µM). The MIC (S. aureus strain 4-139) was 8 µg/mL (≈ 6.95 µM), the MIC (S. aureus strain 4-173) was 16 µg/mL (≈ 13.9 µM) and the MIC (S. aureus strain 4-157) was 16 µg/mL (≈ 13.9 µM). It also gave an MIC (S. aureus strain 4-140) of 16 µg/mL (≈ 13.9 µM).
In the case of `CCCCCCCCCCC[C@@H](O)CC(=O)N[C@@H](Cc1c[nH]c2ccccc12)C(=O)N[C@@H](CO)C(=O)N[C@H](Cc1c[nH]c2ccccc12)C(=O)N[C@@H](Cc1ccccc1)C(=O)N[C@@H](C(=O)N[C@@H](C)C(=O)N[C@H](C(=O)O)C(C)C)[C@H](C)O` [13R] ({Tetradecanoyl(3R-OH)}-WS[dW]F[dT]AV-OH), the MIC [1] is reported as “- (No antimicrobial activity was detected up to 256 µg/mL)”, the MIC [2] is reported as “- (No antimicrobial activity was detected up to 256 µg/mL)” and the MIC [3] is reported as “- (No antimicrobial activity was detected up to 256 µg/mL)”. The MIC [4] was “- (No antimicrobial activity was detected up to 256 µg/mL)”, the MIC (S. aureus strain 4-170) was 8 µg/mL (≈ 7.13 µM) and the MIC (S. aureus strain 4-133) was greater than 256 µg/mL. The MIC (S. aureus strain 4-134) was greater than 256 µg/mL, the MIC (S. aureus strain A-165) was greater than 256 µg/mL and the MIC (S. aureus strain 4-162) was greater than 256 µg/mL. The MIC (S. aureus strain 4-159) was 16 µg/mL (≈ 14.3 µM), the MIC (S. aureus strain 4-138) was 16 µg/mL (≈ 14.3 µM) and the MIC (S. aureus strain 4-131) was greater than 256 µg/mL. For the same molecule, the MIC (S. aureus strain 4-156) was 16 µg/mL (≈ 14.3 µM), the MIC (S. aureus strain 4-145) was 16 µg/mL (≈ 14.3 µM) and the MIC (S. aureus strain 4-144) was 8 µg/mL (≈ 7.13 µM). The MIC (S. aureus strain 4-139) was 8 µg/mL (≈ 7.13 µM), the MIC (S. aureus strain 4-173) was 8 µg/mL (≈ 7.13 µM) and the MIC (S. aureus strain 4-157) was 32 µg/mL (≈ 28.5 µM). It also gave an MIC (S. aureus strain 4-140) of 16 µg/mL (≈ 14.3 µM).
In the case of `CCCCCCCCCCC[C@@H](O)CC(=O)N[C@@H](Cc1c[nH]c2ccccc12)C(=O)N[C@@H](CO)C(=O)N[C@H](Cc1c[nH]c2ccccc12)C(=O)N[C@@H](Cc1ccccc1)C(=O)N[C@@H](C(=O)N[C@H](C(=O)N[C@H](C(=O)O)C(C)C)C(C)C)[C@H](C)O` [12R] ({Tetradecanoyl(3R-OH)}-WS[dW]F[dT]VV-OH), the MIC [1] is reported as “- (No antimicrobial activity was detected up to 256 µg/mL)”, the MIC [2] is reported as “- (No antimicrobial activity was detected up to 256 µg/mL)” and the MIC [3] is reported as “- (No antimicrobial activity was detected up to 256 µg/mL)”. For the same molecule, the MIC [4] was “- (No antimicrobial activity was detected up to 256 µg/mL)”, the MIC (S. aureus strain 4-170) was 4 µg/mL (≈ 3.48 µM) and the MIC (S. aureus strain 4-133) was 256 µg/mL (≈ 223 µM). For the same molecule, the MIC (S. aureus strain 4-134) was greater than 256 µg/mL, the MIC (S. aureus strain A-165) was 256 µg/mL (≈ 223 µM) and the MIC (S. aureus strain 4-162) was greater than 256 µg/mL. It also gave an MIC (S. aureus strain 4-159) of 8 µg/mL (≈ 6.95 µM), an MIC (S. aureus strain 4-138) of 4 µg/mL (≈ 3.48 µM) and an MIC (S. aureus strain 4-131) greater than 256 µg/mL. For the same molecule, the MIC (S. aureus strain 4-156) was 4 µg/mL (≈ 3.48 µM), the MIC (S. aureus strain 4-145) was 16 µg/mL (≈ 13.9 µM) and the MIC (S. aureus strain 4-144) was 8 µg/mL (≈ 6.95 µM). The MIC (S. aureus strain 4-139) was 4 µg/mL (≈ 3.48 µM), the MIC (S. aureus strain 4-173) was 8 µg/mL (≈ 6.95 µM) and the MIC (S. aureus strain 4-157) was 16 µg/mL (≈ 13.9 µM). The MIC (S. aureus strain 4-140) was 8 µg/mL (≈ 6.95 µM).
`CCCCCCCCCCC[C@H](O)CC(=O)N[C@@H](Cc1c[nH]c2ccccc12)C(=O)N[C@@H](CO)C(=O)N[C@H](Cc1c[nH]c2ccccc12)C(=O)N[C@@H](Cc1ccccc1)C(=O)N[C@@H](C(=O)N[C@@H](C)C(=O)N[C@H](C(=O)O)C(C)C)[C@H](C)O` [13S] ({Tetradecanoyl(3S-OH)}-WS[dW]F[dT]AV-OH) was tested, and the MIC [1] was “- (No antimicrobial activity was detected up to 256 µg/mL)”, the MIC [2] was “- (No antimicrobial activity was detected up to 256 µg/mL)” and the MIC [3] was “- (No antimicrobial activity was detected up to 256 µg/mL)”. The MIC [4] was “- (No antimicrobial activity was detected up to 256 µg/mL)”, the MIC (S. aureus strain 4-170) was 8 µg/mL (≈ 7.13 µM) and the MIC (S. aureus strain 4-133) was greater than 256 µg/mL. It also gave an MIC (S. aureus strain 4-134) greater than 256 µg/mL, an MIC (S. aureus strain A-165) greater than 256 µg/mL and an MIC (S. aureus strain 4-162) greater than 256 µg/mL. For the same molecule, the MIC (S. aureus strain 4-159) was 8 µg/mL (≈ 7.13 µM), the MIC (S. aureus strain 4-138) was 16 µg/mL (≈ 14.3 µM) and the MIC (S. aureus strain 4-131) was greater than 256 µg/mL. For the same molecule, the MIC (S. aureus strain 4-156) was 8 µg/mL (≈ 7.13 µM), the MIC (S. aureus strain 4-145) was 32 µg/mL (≈ 28.5 µM) and the MIC (S. aureus strain 4-144) was 16 µg/mL (≈ 14.3 µM). It also gave an MIC (S. aureus strain 4-139) of 8 µg/mL (≈ 7.13 µM), an MIC (S. aureus strain 4-173) of 8 µg/mL (≈ 7.13 µM) and an MIC (S. aureus strain 4-157) of 32 µg/mL (≈ 28.5 µM). For the same molecule, the MIC (S. aureus strain 4-140) was 16 µg/mL (≈ 14.3 µM).
